# Measurements as given in ChEMBL document CHEMBL1129890, “Synthesis and evaluation of dual action cephalosporins as elastase inhibitors” (Bioorg Med Chem Lett, 1997).
# Columns and labels:
# [1] = Steady state velocity of inhibitor concentration required to inhibit porcine pancreatic elastase was determined by using Lineweaver-Burke Plot; set-up: species or system Sus scrofa
# [2] = Hydrolytic stability was expressed as t1/2; assay type: physicochemical
# [3] = Steady state velocity of inhibitor concentration required to inhibit porcine pancreatic elastase was determined by using Dixon Plot; set-up: species or system Sus scrofa
SMILES,IC50 [1] [nM],half-life [2] [h],IC50 [3] [nM]
CC1=C(C(=O)OC(C)(C)C)N2C(=O)[C@H](Cl)C2S(=O)(=O)C1 (some centres undefined),35000,–,11000
CO[C@H]1C(=O)N2C(C(=O)OC(C)(C)C)=C(C)CS(=O)(=O)C12 (some centres undefined),73000,–,11000
CC(C)(C)OC(=O)C1=C(COC(=O)Cc2ccccc2Nc2c(Cl)cccc2Cl)CS(=O)(=O)C2[C@@H](Cl)C(=O)N12 (some centres undefined),180,73,680

# Now from value to molecule:
IC50 [1] [nM],half-life [2] [h],IC50 [3] [nM],SMILES
110,19,–,CO[C@H]1C(=O)N2C(C(=O)OC(C)(C)C)=C(COC(=O)c3ccccc3OC(C)=O)CS(=O)(=O)C12 (some centres undefined)
250,2.3,350,CC(=O)Oc1ccccc1C(=O)OCC1=C(C(=O)OC(C)(C)C)N2C(=O)[C@H](Cl)C2S(=O)(=O)C1 (some centres undefined)
110,60,–,CO[C@H]1C(=O)N2C(C(=O)OC(C)(C)C)=C(COC(=O)Cc3ccccc3Nc3c(Cl)cccc3Cl)CS(=O)(=O)C12 (some centres undefined)
